Where a name gives a salt, the structure may show the parent alone.
Row | Compound | melting point [°C]
1 | CN(C)CCN(C)C(=O)c1ccc2cc(-c3csc(N(C)S(=O)(=O)c4ccccc4)n3)c(=O)[nH]c2c1 [Example 8788, 3-[2-(Benzenesulfonyl-methyl-amino)-thiazol-4-yl]-2-oxo-1,2-dihydro-quinoline-7-carboxylic acid (2-dimethylamino-ethyl)-methyl-amide] | 144 to 148
2 | Nc1c(-c2csc(-c3ccncc3)n2)c(=O)[nH]c2ccc(Cl)cc12 [Example 21, 3-[2-(4-Pyridyl)-4-thiazolyl]-4-amino-6-chloro-2(1H)-quinolinone] | > 220
3 | Nc1c(-c2csc(-c3ccncc3)n2)c(=O)[nH]c2ccc(N3CCCCC3)cc12 [Example 7, 3-[2-(4-Pyridyl)-4-thiazolyl]-4-amino-6-(1-piperidinyl)-2(1H) -quinolinone] | 199 to 202
4 | O=C(Cc1ccccc1)Nc1nc(-c2cc3ccccc3[nH]c2=O)cs1 [Example 72, N-[4-(2-Oxo(3-hydroquinolyl))(1,3-thiazol-2-yl)]-2-phenylacetamide] | 272 to 278
5 | CNc1nc(-c2cc3ccccc3[nH]c2=O)cs1 (as salt: hydrobromid) [Example 75, 3-[2-(Methylamino)-1,3-thiazol-4-yl]hydroquinolin-2-one hydrobromide] | 292 to 293

The remaining lines, values ahead:

Row | melting point [°C] | Compound
6 | > 220 | O=c1[nH]c2cc3c(cc2cc1-c1csc(-c2cccnc2)n1)OCO3 [Example 9, 3-[2-(3-Pyridyl)-4-thiazolyl]-6,7-(methylenedioxyl)-2(1H)-quinolinone]
7 | 230 to 232 | O=c1[nH]c2ccccc2cc1-c1csc(-c2cccnc2)n1 [Example 2, 3-[2-(3-Pyridyl)-4-thiazolyl]-2(1H)-quinolinone]

From US6822097B1, “Compounds and methods of uses” (Amgen, Inc., priority 2002, dated 2004)
